What all share (type): in vivo
Series [1] deals with Beet Armyworm (Spodoptera exigua, LAPHEG) ("BAW"). The experiment in a line: Bioassays on Beet Armyworm (BAW), 128-well diet tray assay. The note with it: second instar BAW larvae, 50 μg/cm^2 on artificial diet, five to seven days, 25° C.; for mortality at 50 µg/cm2: Spodoptera exigua, 168 h, read-out: BAW % Control (or Mortality) rating. Here is the method:
(§1) Certain molecules disclosed in this document were tested against BAW and CEW using procedures described in the following examples. In the reporting of the results, the “BAW & CL Rating Table” was used (See Table Section).
Bioassays on BAW were conducted using a 128-well diet tray assay. one to five second instar BAW larvae were placed in each well (3 mL) of the diet tray that had been previously filled with 1 mL of artificial diet to which 50 μg/cm^2 of the test compound (dissolved in 50 μL of 90:10 acetone-water mixture) had been applied (to each of eight wells) and then allowed to dry. Trays were covered with a clear self-adhesive cover and held at 25° C., 14:10 light-dark for five to seven days. Percent mortality was recorded for the larvae in each well; activity in the eight wells was then averaged. The results are indicated in the table entitled “Table ABC: Biological Results” (See Table Section).

Series [2] concerns Cabbage Looper (Trichoplusia ni, TRIPNI) ("CL"). Description: Bioassays on Cabbage Looper (CL), 128-well diet tray assay. The note with it: for mortality at 50 µg/cm2: Trichoplusia ni, 168 h, read-out: CL % Control (or Mortality) rating. Here is the method:
as §1
Bioassays on CL were conducted using a 128-well diet tray assay. one to five second instar CL larvae were placed in each well (3 mL) of the diet tray that had been previously filled with 1 mL of artificial diet to which 50 μg/cm^2 of the test compound (dissolved in 50 μL of 90:10 acetone-water mixture) had been applied (to each of eight wells) and then allowed to dry. Trays were covered with a clear self-adhesive cover and held at 25° C., 14:10 light-dark for five to seven days. Percent mortality was recorded for the larvae in each well; activity in the eight wells was then averaged. The results are indicated in the table entitled “Table ABC: Biological Results” (See Table Section).

Series [3] concerns Yellow Fever Mosquito (Aedes aegypti, AEDSAE) ("YFM"). The conditions noted are these: about 1 day-old larvae, 4000 ppm master solution diluted, 3 days, room temperature. Here is the method:
Certain molecules disclosed in this document were tested against YFM using procedures described in the following paragraph. In the reporting of the results, the “YFM Rating Table” was used (See Table Section).
Master plates containing 400 μg of a molecule dissolved in 100 μL of dimethyl sulfoxide (DMSO) (equivalent to a 4000 ppm solution) are used. A master plate of assembled molecules contains 15 μL per well. To this plate, 135 μL of a 90:10 water:acetone mixture is added to each well. A robot (Biomek® NXP Laboratory Automation Workstation) is programmed to dispense 15 μL aspirations from the master plate into an empty 96-well shallow plate (“daughter” plate). There are 6 reps (“daughter” plates) created per master. The created daughter plates are then immediately infested with YFM larvae.
The day before plates are to be treated, mosquito eggs are placed in Millipore water containing liver powder to begin hatching (4 g. into 400 mL). After the daughter plates are created using the robot, they are infested with 220 μL of the liver powder/larval mosquito mixture (about 1 day-old larvae). After plates are infested with mosquito larvae, a non-evaporative lid is used to cover the plate to reduce drying. Plates are held at room temperature for 3 days prior to grading. After 3 days, each well is observed and scored based on mortality.

The term mortality denotes the share of the test organisms that died.

Turning to “6-Methoxy-N-(4-(1-(4-(trifluoromethoxy)phenyl)-1H-1,2,4-triazol-3-yl)phenethyl)-[1,1′-biphenyl]-3-carboxamide [F56]”, the “BAW % Control (or Mortality) rating” value in series [1] is listed as “A (50-100)”. Moreover, in series [2] (second instar CL larvae, 50 μg/cm^2 on artificial diet, five to seven days, 25° C.), the “CL % Control (or Mortality) rating” value is listed as “A (50-100)”. For the same compound, the “YFM % Control (or Mortality) rating” value in series [3] is on record as “A (80-100)”.
Consider `O=C(Nc1ccc(-c2ncn(-c3ccc(OC(F)(F)F)cc3)n2)cc1)c1cccc(-c2ccccc2OC(F)(F)F)c1` [F1, 2′-(Trifluoromethoxy)-N-(4-(1-(4-(trifluoromethoxy)phenyl)-1H-1,2,4-triazol-3-yl)phenyl)-[1,1′-biphenyl]-3-carboxamide], for which the mortality at 50 µg/cm2 is 0% in series [1] and 50 to 100% in series [2]. Besides, in series [3], the “YFM % Control (or Mortality) rating” value is given as “D (No activity noticed in this bioassay)”.
For `Cc1ccc(-c2cccc(C(=O)Nc3ccc(-c4ncn(-c5ccc(OC(F)(F)F)cc5)n4)cc3)n2)c(C)c1` [F2, 6-(2,4-Dimethylphenyl)-N-(4-(1-(4-(trifluoromethoxy)phenyl)-1H-1,2,4-triazol-3-yl)phenyl)picolinamide], in that order: 0 to 50%, 0% and “D (No activity noticed in this bioassay)”.
For the compound `O=C(Nc1ccc(-c2ncn(-c3ccc(OC(F)(F)F)cc3)n2)cc1)c1cccc(-c2ccccc2OCc2ccccc2)c1` [F3, 2′-(Benzyloxy)-N-(4-(1-(4-(trifluoromethoxy)phenyl)-1H-1,2,4-triazol-3-yl)phenyl)-[1,1′-biphenyl]-3-carboxamide], the mortality at 50 µg/cm2 in series [1] and in series [2] was 0% each time. For the same compound, the “YFM % Control (or Mortality) rating” value in series [3] is listed as “D (No activity noticed in this bioassay)”.
Turning to `COc1ccccc1-c1cc(C(=O)Nc2ccc(-c3ncn(-c4ccc(OC(C)C)cc4)n3)cc2)ccc1F` [F4, 6-Fluoro-N-(4-(1-(4-isopropoxyphenyl)-1H-1,2,4-triazol-3-yl)phenyl)-2′-methoxy-[1,1′-biphenyl]-3-carboxamide], the mortality at 50 µg/cm2 in series [1] and in series [2] was 50 to 100% throughout. Moreover, in series [3], the “YFM % Control (or Mortality) rating” value is listed as “B (More than 0-Less than 80)”.
Take `COc1ccccc1-c1cccc(C(=O)Nc2ccc(-c3ncn(-c4ccc(OC(C)C)cc4)n3)cc2)c1` [F5, N-(4-(1-(4-isopropoxyphenyl)-1H-1,2,4-triazol-3-yl)phenyl)-2′-methoxy-[1,1′-biphenyl]-3-carboxamide]: the mortality at 50 µg/cm2 in series [1] and in series [2] was 50 to 100% each time. The “YFM % Control (or Mortality) rating” value in series [3] is given as “B (More than 0-Less than 80)”.
As for `O=C(Nc1ccc(-c2ncn(-c3ccc(OC(F)(F)C(F)(F)F)cc3)n2)cc1)c1cc(Cl)cc(-c2ccccc2)c1` [F6, 5-Chloro-N-(4-(1-(4-(perfluoroethoxy)phenyl)-1H-1,2,4-triazol-3-yl)phenyl)-[1,1′-biphenyl]-3-carboxamide], the mortality at 50 µg/cm2 in series [1] and in series [2] was 0% throughout. Moreover, the “YFM % Control (or Mortality) rating” value in series [3] is “D (No activity noticed in this bioassay)”.
In the case of `COc1ccccc1-c1cc(C(=O)Nc2ccc(-c3ncn(-c4ccc(OC(F)(F)C(F)(F)F)cc4)n3)cc2)ccc1F` [F7, 6-Fluoro-2′-methoxy-N-(4-(1-(4-(perfluoroethoxy)phenyl)-1H-1,2,4-triazol-3-yl)phenyl)-[1,1′-biphenyl]-3-carboxamide], the mortality at 50 µg/cm2 in series [1] and in series [2] was 50 to 100% each time. Besides, the “YFM % Control (or Mortality) rating” value in series [3] is recorded as “D (No activity noticed in this bioassay)”.
In the case of `COc1ccccc1-c1cc(C(=O)NCCc2ccc(-c3ncn(-c4ccc(OC(F)(F)F)cc4)n3)cc2)ccc1F` [F54, 6-Fluoro-2′-methoxy-N-(4-(1-(4-(trifluoromethoxy)phenyl)-1H-1,2,4-triazol-3-yl)phenethyl)-[1,1′-biphenyl]-3-carboxamide], the mortality at 50 µg/cm2 in series [1] and in series [2] was 50 to 100% in each case.

These data come from patent US9550739B2, “Molecules having certain pesticidal utilities, and intermediates, compositions, and processes related thereto” (priority 2014, dated 2017).
